How the values were obtained:
CDK4/Cyclin D1 = CDK4/Cyclin D1 (Homo sapiens (Human), UniProt P11802); test: CDK4/Cyclin D1 CHEF Assay (AQT0258 peptide); type: biochemical; conditions: 200 uM ATP, read-out: CDK4/ CyclinD1 AQT IC50
Source text: CDK4/Cyclin D1 CHEF Assay
The purpose of CDK4/Cyclin Dl assay is to evaluate the inhibition (% inhibition and IC50 values) of small molecule inhibitors by using a Chelation-Enhance Fluorescence (CHEF) assay. In a CHEF assay, phosphorylation of a peptide substrate results in proportional increase in fluorescence. CHEF kinase assay use peptide substrates containing a synthetic alpha-amino acid with a side chain bearing an 8-hydroxyquinoline derivative (sulfonamido-oxide, Sox). Upon phosphorylation of a nearby serine, threonine or tyrosine and in the presence of Mg(II), the spectral properties of the Sox residue are altered, emitting 485 nm wavelength light when excited with a 360 nm wavelength light source. CDK4/Cyclin D1 catalyzes the phosphoryl transfer to the SOX-labeled substrate peptide AQT0258 from Assayquant Technologies. Typical reaction solutions contained 2% DMSO (+/−inhibitor), 10 mM MgCl2, 1 mM DTT, 200 uM ATP (ATP Km=195.2 uM), 0.012% Brig-35, 10 uM AQT0258 peptide, 0.02% BSA, 1% Glycerol, 0.55 mM EGTA, 2.5 nM CDK4/Cyclin D1 in 54 mM HEPES buffer at pH 7.5. The reaction was initiated with the addition of substrate solution, following a 30-minute pre-incubation of enzyme and inhibitor at 22° C. in the reaction mix. Reactions were allowed to proceed for 3 hrs at 22° C., followed by fluorescence read of the reaction. The IC50 determinations were made from a plot of the fractional velocity as a function of inhibitor concentration fit to the 4 parameters IC50 equation.

CDK6/Cyclin D3 = CDK6/Cyclin D3 (Homo sapiens (Human), UniProt Q00534); test: CDK6/Cyclin D3 ADP-Glo Kinase Assay; type: biochemical; conditions: 100 uM ATP, read-out: CDK6/ CyclinD3 IC50
Sequence of CDK6/Cyclin D3 (Q00534 whole entry): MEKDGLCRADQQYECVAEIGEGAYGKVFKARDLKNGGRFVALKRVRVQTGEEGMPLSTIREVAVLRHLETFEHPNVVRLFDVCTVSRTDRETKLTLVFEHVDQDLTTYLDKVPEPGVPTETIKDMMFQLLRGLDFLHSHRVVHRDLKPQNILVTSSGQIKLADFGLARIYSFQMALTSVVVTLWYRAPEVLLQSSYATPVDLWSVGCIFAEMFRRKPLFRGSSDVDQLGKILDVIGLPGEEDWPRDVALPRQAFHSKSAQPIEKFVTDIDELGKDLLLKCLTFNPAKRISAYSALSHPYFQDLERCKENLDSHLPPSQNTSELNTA
Sequence of CDK6/Cyclin D3 (P30281 whole entry partner): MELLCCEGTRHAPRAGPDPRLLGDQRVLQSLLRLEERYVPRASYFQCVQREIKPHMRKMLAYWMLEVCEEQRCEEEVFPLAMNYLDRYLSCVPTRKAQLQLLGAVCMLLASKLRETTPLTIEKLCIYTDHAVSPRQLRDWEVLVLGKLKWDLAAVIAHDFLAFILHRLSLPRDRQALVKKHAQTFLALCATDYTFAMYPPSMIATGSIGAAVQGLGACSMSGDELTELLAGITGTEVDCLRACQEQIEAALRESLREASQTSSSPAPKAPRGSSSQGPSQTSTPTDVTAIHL
Experimental: CDK6/Cyclin D3 ADP-Glo Kinase Assay
The purpose of the CDK6/Cyclin D3 assay is to evaluate the inhibition (% inhibition and IC50 values) in the presence of small molecule inhibitors by using a Luminescent based ADP-Glo assay. CDK6/Cyclin D3 catalyzes the production of ADP from ATP. ADP-Glo assay monitors ADP producing biochemical reactions. ADP-Glo is performed in 2 steps upon completion of kinase reaction: a combined termination of kinase reaction and depletion of remaining ATP in the first step, and conversion of generated ADP to ATP and the newly produced ATP to light output using luciferase/luciferin reaction in the second step. The luminescent signal generated is proportional to the ADP concentration produced and is correlated with the kinase activity. CDK6/Cyclin D3 was purchased from Carna. […] The assay was initiated with the addition of ATP-containing substrate solution, following a 30-minute pre-incubation of enzyme and inhibitor at room temperature in the reaction mixture. The reaction was stopped after 90 minutes at room temperature by the addition of 10 uL of ADP-GLO Reagent. After a 90-minute incubation, 20 uL of Kinase Detection Reagent was added. Samples were incubated for 40 minutes, after which plate well luminescence was measured on a Envision microplate reader. The IC50 determinations were made from a plot of the fractional velocity as a function of inhibitor concentration fit to the 4 parameters IC50 equation.

OVCAR-3 cells = test: Cell Growth Inhibition, OVCAR-3 (CellTiterGlo, 6 days); type: cell-based; conditions: OVCAR-3, 6-day treatment, CellTiterGlo 2.0
Source text: (§1) MCF-7 and OVCAR-3 cells were used to evaluate the anti-proliferation activity of the CDK inhibitors. MCF-7 (ATCC, HTB-22) cells are epithelial cells from a patient with ER+ metastatic adenocarcinoma. OVCAR-3 (ATCC, HTB-161) cells were derived from malignant ascites of a patient with ovarian cancer and are known to have CCNE1 amplification. Both cell lines were maintained in RPMI media supplemented with 10% fetal bovine serum. For cell growth inhibition assay, CDK inhibitors in DMSO solution were dispensed with either Echo 655 (Beckman Coulter) or Tecan D300e (HP) into 384-well plates (Corning #3765) and the 384-well plates were UV-sterilized prior to the assay. The inhibitors were typically tested in the 10-10,000 nM concentration range with half-log serial dilutions. MCF-7 or OVCAR-3 (500 cells/30 μL/well) were added to each well using Multidrop Combi (ThermoFisher) using standard cassettes. The assay plates with cells were cultured at 37° C., 5% CO2 for 6 days. At the end of the 6-day treatment, 30 μL of CellTiterGlo 2.0 (Promega) was added to each well and the luminescent signal was read using CLARIOstar plus (BMG). The percentage of cell growth inhibition (% CGI) was calculated using the following formula % CGI=100−100×luminescencesample/luminescencecontrol. The half maximal inhibitory concentration (IC50) was determined by nonlinear curve fitting (four parameters, variable slope).

MCF-7 cells = test: Cell Growth Inhibition, MCF-7 (CellTiterGlo, 6 days); type: cell-based; conditions: MCF-7, 6-day treatment, CellTiterGlo 2.0
Source text: as §1

[1] = target: CDK2/Cyclin E1 full length (Homo sapiens (Human), UniProt P24941); test: CDK2/Cyclin E1 Full Length ADP-Glo Kinase Assay; type: biochemical; conditions: 20 uM ATP, read-out: CDK2/ CyclinE1 IC50
Experimental: CDK2/Cyclin E1 Full Length ADP-Glo Kinase Assay
The purpose of CDK2/Cyclin E1 assay is to evaluate the inhibition (% inhibition and IC50 values) of small molecule inhibitors by using a Luminescent based ADP-Glo assay. CDK2/Cyclin E1 full length catalyzes the production of ADP from ATP. ADP-Glo assay monitors ADP producing biochemical reactions. ADP-Glo is performed in 2 steps upon completion of kinase reaction: a combined termination of kinase reaction and depletion of remaining ATP in the first step, and conversion of generated ADP to ATP and the newly produced ATP to light output using luciferase/luciferin reaction in the second step. The luminescent signal generated is proportional to the ADP concentration produced and is correlated with the kinase activity. CDK2/Cyclin E1 was purchased from Eurofins (Cat 14-475M). Typical reaction solutions (10 uL final reaction volume) contained 2% DMSO (f inhibitor), 10 mM MgCI2, 1 mM EGTA, 0.05% BSA, 2 mM DTT, 20 uM ATP (ATP Km=64.78 uM), 0.01% Brig-35, 0.75 uM substrate, and 0.328 nM wild-type full length CDK2/Cyclin E1 enzyme complex in 50 mM HEPES buffer at pH 7.5. The assay was initiated with the addition of ATP-containing substrate solution, following a 30-minute pre-incubation of enzyme and inhibitor at room temperature in the reaction mixture. The reaction was stopped after 90 minutes at room temperature by the addition of 10 uL of ADP-GLO Reagent. After a 90 minute incubation, 20 uL of Kinase Detection Reagent was added. Samples were incubated for 40 minutes, after which plate well luminescence was measured on a Envision microplate reader. The IC50 determinations were made from a plot of the fractional velocity as a function of inhibitor concentration fit to the 4 parameters IC50 equation.

CDK1/Cyclin B1 = CDK1/Cyclin B1 (Homo sapiens (Human), UniProt P06493); test: CDK1/Cyclin B1 ADP-Glo Kinase Assay; type: biochemical; conditions: 80 uM ATP
Sequence of CDK1/Cyclin B1 (P06493 whole entry): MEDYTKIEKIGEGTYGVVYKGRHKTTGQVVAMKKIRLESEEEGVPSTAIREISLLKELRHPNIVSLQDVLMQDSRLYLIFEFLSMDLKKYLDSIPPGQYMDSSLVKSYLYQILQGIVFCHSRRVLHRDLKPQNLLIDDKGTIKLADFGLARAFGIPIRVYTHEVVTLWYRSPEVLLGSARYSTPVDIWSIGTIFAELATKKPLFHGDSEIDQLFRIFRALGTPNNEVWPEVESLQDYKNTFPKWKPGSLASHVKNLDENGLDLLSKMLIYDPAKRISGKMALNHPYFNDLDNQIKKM
Sequence of CDK1/Cyclin B1 (P14635 whole entry partner): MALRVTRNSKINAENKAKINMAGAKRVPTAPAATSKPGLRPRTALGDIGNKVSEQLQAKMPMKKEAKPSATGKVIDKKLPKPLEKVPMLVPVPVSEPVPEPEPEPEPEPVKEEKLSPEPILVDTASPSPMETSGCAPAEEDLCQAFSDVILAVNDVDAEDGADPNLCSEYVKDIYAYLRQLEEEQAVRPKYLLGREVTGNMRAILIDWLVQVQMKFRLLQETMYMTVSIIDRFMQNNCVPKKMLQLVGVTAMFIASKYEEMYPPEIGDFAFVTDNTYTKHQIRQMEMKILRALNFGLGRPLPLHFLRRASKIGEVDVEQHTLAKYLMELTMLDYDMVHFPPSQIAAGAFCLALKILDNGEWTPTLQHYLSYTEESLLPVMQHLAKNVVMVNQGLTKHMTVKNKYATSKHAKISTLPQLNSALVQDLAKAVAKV
Experimental: CDK1/Cyclin B1 ADP-Glo Kinase Assay
The purpose of CDK1/Cyclin B1 assay is to evaluate the inhibition (% inhibition and IC50 values) of small molecule inhibitors by using a Luminescent based ADP-Glo assay. CDK1/Cyclin B1 catalyzes the production of ADP from ATP. ADP-Glo assay monitors ADP producing biochemical reactions. ADP-Glo is performed in 2 steps upon completion of kinase reaction: a combined termination of kinase reaction and depletion of remaining ATP in the first step, and conversion of generated ADP to ATP and the newly produced ATP to light output using luciferase/luciferin reaction in the second step. The luminescent signal generated is proportional to the ADP concentration produced and is correlated with the kinase activity. CDK1/Cyclin B1 was purchased from Carna (Cat 04-102). Typical reaction solutions (10 uL final reaction volume) contained 2% DMSO (f inhibitor), 10 mM MgCl2, 1 mM EGTA, 0.05% BSA, 2 mM DTT, 80 uM ATP (ATP Km=78.6 uM), 0.01% Brig-35, 0.75 uM substrate, and 4.917 nM CDK1/Cyclin Bl enzyme complex in 50 mM HEPES buffer at pH 7.5. The assay was initiated with the addition of ATP-containing substrate solution, following a 30-minute pre-incubation of enzyme and inhibitor at room temperature in the reaction mixture. The reaction was stopped after 90 minutes at room temperature by the addition of 10 uL of ADP-GLO Reagent. After a 90 minute incubation, 20 uL of Kinase Detection Reagent was added. Samples were incubated for 40 minutes, after which plate well luminescence was measured on a Envision microplate reader. The IC50 determinations were made from a plot of the fractional velocity as a function of inhibitor concentration fit to the 4 parameters IC50 equation.

Sequence of CDK4/Cyclin D1 (P11802 whole entry): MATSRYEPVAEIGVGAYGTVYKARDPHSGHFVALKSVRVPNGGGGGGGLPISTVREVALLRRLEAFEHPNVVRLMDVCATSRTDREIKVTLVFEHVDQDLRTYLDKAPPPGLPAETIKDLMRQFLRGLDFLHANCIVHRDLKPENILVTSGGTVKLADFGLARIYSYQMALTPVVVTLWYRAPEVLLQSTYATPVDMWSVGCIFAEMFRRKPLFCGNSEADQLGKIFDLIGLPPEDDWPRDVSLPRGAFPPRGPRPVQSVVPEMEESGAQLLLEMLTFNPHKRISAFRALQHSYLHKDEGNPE
Sequence of CDK4/Cyclin D1 (P24385 whole entry partner): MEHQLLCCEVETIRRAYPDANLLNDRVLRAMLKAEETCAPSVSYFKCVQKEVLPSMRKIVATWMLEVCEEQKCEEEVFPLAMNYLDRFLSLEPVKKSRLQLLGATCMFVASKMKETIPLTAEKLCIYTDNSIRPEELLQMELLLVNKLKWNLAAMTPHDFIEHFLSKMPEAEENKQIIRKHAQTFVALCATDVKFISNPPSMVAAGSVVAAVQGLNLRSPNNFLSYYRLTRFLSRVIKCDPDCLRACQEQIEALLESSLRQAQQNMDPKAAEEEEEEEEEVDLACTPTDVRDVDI

Row | IC50 (CDK4/Cyclin D1) | IC50 (CDK6/Cyclin D3) | IC50 (OVCAR-3 cells; Homo sapiens, 144 h) | IC50 (MCF-7 cells; Homo sapiens, MCF7, 144 h) | IC50 [1] | IC50 (CDK1/Cyclin B1) | IC50 (OVCAR-3 cells) | IC50 (MCF-7 cells) | SMILES
1 | < 200 nM | < 200 nM | 500 to 2000 nM | 500 to 2000 nM | < 200 nM | 500 to 2000 nM |  |  | CN1Cc2ccc(Nc3ncc4cc(C(F)F)cc(N5CC6(C5)CN(S(C)(=O)=O)C6)c4n3)cc2C1 [Example 58, 6-(difluoromethyl)-N-(2-methylisoindolin-5-yl)-8-(6-(methylsulfonyl)-2,6-diazaspiro[3.3]heptan-2-yl)quinazolin-2-amine]
2 | 200 to 500 nM | 500 to 2000 nM |  |  | 500 to 2000 nM | > 2000 nM | > 2000 nM | > 2000 nM | CN1CC(n2cc(Nc3ncc4cc(C(F)F)cc(N5CC6(CN(C)C6)C5)c4n3)cn2)C1 [Example 59, 6-(difluoromethyl)-8-(6-6-methyl-2,6-diazaspiro[3.3]heptan-2-yl)-N-(1-(1-methylazetidin-3-yl)-1H-pyrazol-4-yl)quinazolin-2-amine]
3 | < 200 nM | < 200 nM | 500 to 2000 nM | 500 to 2000 nM | 200 to 500 nM | 500 to 2000 nM |  |  | CN1CC2(CC(n3cc(Nc4ncc5cc(C(F)F)cc(N6CCC(C#N)(C7CC7)C6)c5n4)cn3)C2)C1 (stereo not drawn) [Example 60, 3-cyclopropyl-1-(6-(difluoromethyl)-2-((1-(2-methyl-2-azaspiro[3.3]heptan-6-yl)-1H-pyrazol-4-yl)amino)quinazolin-8-yl)pyrrolidine-3-carbonitrile]
4 | 200 to 500 nM | 500 to 2000 nM | > 2000 nM | > 2000 nM | < 200 nM | 500 to 2000 nM |  |  | CN1Cc2cc(F)c(Nc3ncc4cc(C(F)F)cc(N5CC6(CNC6)C5)c4n3)cc2C1 [Example 61, 6-(difluoromethyl)-N-(6-fluoro-2-methylisoindolin-5-yl)-8-(2,6-diazaspiro[3.3]heptan-2-yl)quinazolin-2-amine]
5 | < 200 nM | < 200 nM | 500 to 2000 nM | < 200 nM | < 200 nM | 200 to 500 nM |  |  | CN1CC2(CCN(c3cc(C(F)F)cc4cnc(NC5CCN(S(C)(=O)=O)CC5)nc34)C2)C1 [Example 62, 6-(difluoromethyl)-8-(2-methyl-2,6-diazaspiro[3.4]octan-6-yl)-N-(1-(methylsulfonyl)piperidin-4-yl)quinazolin-2-amine]
6 | < 200 nM | < 200 nM | 500 to 2000 nM | 500 to 2000 nM | < 200 nM | < 200 nM |  |  | CS(=O)(=O)N1CCC(Nc2ncc3cc(C(F)F)cc(N4CC5(CCNC5)C4)c3n2)CC1 [Example 63, 6-(difluoromethyl)-N-(1-(methylsulfonyl)piperidin-4-yl)-8-(2,6-diazaspiro[3.4]octan-2-yl)quinazolin-2-amine]
7 | < 200 nM | > 2000 nM | > 2000 nM | 500 to 2000 nM | 500 to 2000 nM | > 2000 nM |  |  | CN1CC2(CCN(c3cc(C(F)F)cc4cnc(NC5CCN(c6ncc(C7CC7)cn6)CC5)nc34)C2)C1 [Example 64, N-(1-(5-cyclopropylpyrimidin-2-yl)piperidin-4-yl)-6-(difluoromethyl)-8-(2-methyl-2,6-diazaspiro[3.4]octan-6-yl)quinazolin-2-amine]
8 | < 200 nM | < 200 nM | 500 to 2000 nM | 500 to 2000 nM | < 200 nM | > 2000 nM |  |  | CN1Cc2ccc(Nc3ncc4cc(C(F)F)cc(N5CC6(C5)CN(C5CC5)C6)c4n3)cc2C1 [Example 65, 8-(6-cyclopropyl-2,6-diazaspiro[3.3]heptan-2-yl)-6-(difluoromethyl)-N-(2-methylisoindolin-5-yl)quinazolin-2-amine]
9 | < 200 nM | < 200 nM | 500 to 2000 nM | 500 to 2000 nM | < 200 nM | 500 to 2000 nM |  |  | CN1Cc2ccc(Nc3ncc4cc(C(F)F)cc(N5CCC6(CN(C)C6)C5)c4n3)cc2C1 [Example 66, 6-(difluoromethyl)-8-(2-methyl-2,6-diazaspiro[3.4]octan-6-yl)-N-(2-methylisoindolin-5-yl)quinazolin-2-amine]
